{
  "source": "patent US20210317490A1",
  "about": "“ANTICANCER COMPOUNDS” (priority 2017, published 2021)",
  "key": {"[1]": {"system": "PSN-1", "assay": "SRB colorimetric cytotoxicity assay, PSN1", "type": "cell-based, human", "settings": "for GI50 / CC50: Homo sapiens, PSN1, PSN-1, 72 hours treatment; for GI50: 50% cell growth inhibition; for CC50: 50% net cell killing, read-out: LC50 (the source's name); for TGI: PSN-1, 72 hours treatment, total cell growth inhibition", "excerpt": "(§1) The aim of this assay is to evaluate the in vitro cytostatic (ability to delay or arrest tumor cell growth) or cytotoxic (ability to kill tumor cells) activity of the samples being tested.\n(§2) A colorimetric assay, using sulforhodamine B (SRB) reaction has been adapted to provide a quantitative measurement of cell growth and viability (following the technique described by Skehan et al. J. Natl. Cancer Inst. 1990, 82, 1107-1112).\n(§3) This form of assay employs 96-well cell culture microplates following the standards of the American National Standards Institute and the Society for Laboratory Automation and Screening (ANSI SLAS 1-2004 (R2012) 10/12/2011). All the cell lines used in this study were obtained from the American Type Culture Collection (ATCC) and derive from different types of human cancer.\n(§4) Cells were maintained in Dulbecco's Modified Eagle Medium (DMEM) supplemented with 10% Fetal Bovine Serum (FBS), 2mM L-glutamine, 100 U/mL penicillin and 100 U/mL streptomycin at 37 ° C., 5% CO2 and 98% humidity. For the experiments, cells were harvested from subconfluent cultures using trypsinization and resuspended in fresh medium before counting and plating.\n(§5) Cells were seeded in 96 well microtiter plates, at 5000 cells per well in aliquots of 150 μL and allowed to attach to the plate surface for 18 hours (overnight) in drug free medium. After that, one control (untreated) plate of each cell line was fixed (as described below) and used for time zero reference value. Culture plates were then treated with test compounds (50 μL aliquots of 4× stock solutions in complete culture medium plus 4% DMSO) using ten 2/5 serial dilutions (concentrations ranging from 10 to 0.003 μg/mL) and triplicate cultures (1% final concentration in DMSO). After 72 hours treatment, the antitumor effect was measured by using the SRB methodology: Briefly, cells were washed twice with PBS, fixed for 15 min in 1% glutaraldehyde solution at room temperature, rinsed twice in PBS, and stained in 0.4% SRB solution for 30 min at room temperature. Cells were then rinsed several times with 1% acetic acid solution and air-dried at room temperature. SRB was then extracted in 10 mM trizma base solution and the absorbance measured in an automated spectrophotometric plate reader at 490 nm. Effects on cell growth and survival were estimated by applying the NCI algorithm (Boyd M R and Paull K D. Drug Dev. Res. 1995, 34, 91-104).\n(§6) The values obtained in triplicate cultures were fitted to a four-parameter logistic curve by nonlinear regression analysis. Three reference parameters were calculated (according to the NCI algorithm) by automatic interpolation of the curves obtained from such fitting: GI50=compound concentration that produces 50% cell growth inhibition, as compared to control cultures; TGI=total cell growth inhibition (cytostatic effect), as compared to control cultures, and LC50=compound concentration that produces 50% net cell killing cytotoxic effect)."}, "[2]": {"system": "A549", "assay": "SRB colorimetric cytotoxicity assay, A549", "type": "cell-based, human", "settings": "A549, 72 hours treatment; for TGI: total cell growth inhibition; for GI50 / CC50: Homo sapiens; for GI50: 50% cell growth inhibition; for CC50: 50% net cell killing, read-out: LC50 (the source's name)", "excerpt": "as §1, §2, §3, §4, §5, §6"}, "[3]": {"system": "MDA-MB-231", "assay": "SRB colorimetric cytotoxicity assay, MDA-MB-231", "type": "cell-based, human", "settings": "MDA-MB-231, 72 hours treatment; for GI50 / LC50 (concentration giving 50% net cell killing): Homo sapiens; for GI50: 50% cell growth inhibition; for TGI: total cell growth inhibition", "excerpt": "as §1, §2, §3, §4, §5, §6"}, "[4]": {"system": "HT29", "assay": "SRB colorimetric cytotoxicity assay, HT29", "type": "cell-based, human", "settings": "for TGI: HT29, 72 hours treatment, total cell growth inhibition; for GI50 / CC50: Homo sapiens, HT-29, HT29, 72 hours treatment; for GI50: 50% cell growth inhibition; for CC50: 50% net cell killing, read-out: LC50 (the source's name)", "excerpt": "as §1, §2, §3, §4, §5, §6"}, "[5]": {"system": "P-388 murine leukemia cell line", "settings": "cited from earlier work; for IC50 against the P-388 murine leukemia cell line: mycalamides, J. Nat. Prod. 2000, 63, 704"}, "[6]": {"settings": "toxicity lower than pederin; cited from earlier work"}, "[7]": {"system": "B104 cells", "settings": "cited from earlier work"}, "[8]": {"system": "HeLa cells", "settings": "cited from earlier work"}, "[9]": {"system": "EUE, E6D, HeLa, KB, Hep, AS, MEF, CE, BHK, Z1 and M1 cell lines", "settings": "within four days, in all the cell lines analyzed; cited from earlier work"}},
  "data": [
    {"smiles": "C=C1CC(OC)(C(O)C(=O)NC(OC)C2CC(O)C(C)(C)C(CC(CO)OC)O2)OC(C)C1C", "note": "(stereo not shown) [Compound 1]", "values": [
      {"measurement": "GI50", "setting": "[1]", "result": 2.66, "unit": "nM"},
      {"measurement": "CC50", "setting": "[1]", "result": 19.4, "unit": "nM"},
      {"measurement": "TGI", "setting": "[1]", "result": 5.72, "unit": "nM"},
      {"measurement": "TGI", "setting": "[2]", "result": 7.97, "unit": "nM"},
      {"measurement": "GI50", "setting": "[2]", "result": 2.04, "unit": "nM"},
      {"measurement": "CC50", "setting": "[2]", "result": 36.8, "unit": "nM"},
      {"measurement": "GI50", "setting": "[3]", "result": 2.66, "unit": "nM"},
      {"measurement": "LC50 (concentration giving 50% net cell killing)", "setting": "[3]", "result": 10.8, "unit": "nM"},
      {"measurement": "TGI", "setting": "[3]", "result": 5.31, "unit": "nM"},
      {"measurement": "TGI", "setting": "[4]", "result": 8.99, "unit": "nM"},
      {"measurement": "GI50", "setting": "[4]", "result": 2.86, "unit": "nM"},
      {"measurement": "CC50", "setting": "[4]", "result": "> 204", "unit": "nM"}
    ]},
    {"smiles": "C=C1CC(OC)(C(O)C(=O)NC(OC)C2CC(O)C(C)(C)C(CC(O)CO)O2)OC(C)C1C", "note": "(stereo not shown) [Compound 2]", "values": [
      {"measurement": "GI50", "setting": "[1]", "result": 8.62, "unit": "nM"},
      {"measurement": "CC50", "setting": "[1]", "result": 77.8, "unit": "nM"},
      {"measurement": "TGI", "setting": "[1]", "result": 19.1, "unit": "nM"},
      {"measurement": "TGI", "setting": "[2]", "result": 25.2, "unit": "nM"},
      {"measurement": "GI50", "setting": "[2]", "result": 7.15, "unit": "nM"},
      {"measurement": "CC50", "setting": "[2]", "result": 122, "unit": "nM"},
      {"measurement": "GI50", "setting": "[3]", "result": 8.2, "unit": "nM"},
      {"measurement": "LC50 (concentration giving 50% net cell killing)", "setting": "[3]", "result": 31.5, "unit": "nM"},
      {"measurement": "TGI", "setting": "[3]", "result": 15.6, "unit": "nM"},
      {"measurement": "TGI", "setting": "[4]", "result": 44.2, "unit": "nM"},
      {"measurement": "GI50", "setting": "[4]", "result": 8.83, "unit": "nM"},
      {"measurement": "CC50", "setting": "[4]", "result": "> 2100", "unit": "nM"}
    ]},
    {"smiles": "C=C1CC(OC)(C(OC(C)=O)C(=O)NC(OC)C2CC(OC(C)=O)C(C)(C)C(CC(COC(C)=O)OC)O2)OC(C)C1C", "note": "(stereo not shown) [Compound 3]", "values": [
      {"measurement": "GI50", "setting": "[1]", "result": 162, "unit": "nM"},
      {"measurement": "CC50", "setting": "[1]", "result": 3900, "unit": "nM"},
      {"measurement": "TGI", "setting": "[1]", "result": 666, "unit": "nM"},
      {"measurement": "TGI", "setting": "[2]", "result": 877, "unit": "nM"},
      {"measurement": "GI50", "setting": "[2]", "result": 115, "unit": "nM"},
      {"measurement": "CC50", "setting": "[2]", "result": 8610, "unit": "nM"},
      {"measurement": "GI50", "setting": "[3]", "result": 309, "unit": "nM"},
      {"measurement": "LC50 (concentration giving 50% net cell killing)", "setting": "[3]", "result": "> 16200", "unit": "nM"},
      {"measurement": "TGI", "setting": "[3]", "result": 2440, "unit": "nM"},
      {"measurement": "TGI", "setting": "[4]", "result": 926, "unit": "nM"},
      {"measurement": "GI50", "setting": "[4]", "result": 162, "unit": "nM"},
      {"measurement": "CC50", "setting": "[4]", "result": "> 16200", "unit": "nM"}
    ]},
    {"smiles": "C=C1C[C@](OC)([C@H](O)C(=O)N[C@H]2OCO[C@H]3[C@@H]2O[C@H](C[C@H](O)CO)C(C)(C)[C@@H]3OC)O[C@H](C)[C@@H]1C", "note": "[Mycalamide A]", "values": [
      {"measurement": "IC50 against the P-388 murine leukemia cell line", "setting": "[5]", "result": 3.0, "unit": "ng/mL"}
    ]},
    {"smiles": "C=C1C[C@](OC)([C@H](O)C(=O)N[C@H]2OCO[C@H]3[C@@H]2O[C@H](CC(CO)OC)C(C)(C)[C@@H]3OC)O[C@H](C)[C@@H]1C", "note": "(stereo partly shown) [Mycalamide B]", "values": [
      {"measurement": "IC50 against the P-388 murine leukemia cell line", "setting": "[5]", "result": 0.7, "unit": "ng/mL"}
    ]},
    {"smiles": "C=C1C[C@](OC)([C@H](O)C(=O)NC[C@H]2O[C@H](CO)C(C)(C)[C@H](O)[C@H]2O)O[C@H](C)[C@@H]1C", "note": "[Mycalamide C]", "values": [
      {"measurement": "IC50 against the P-388 murine leukemia cell line", "setting": "[5]", "result": 95.0, "unit": "ng/mL"}
    ]},
    {"smiles": "C=C1C[C@](OC)([C@H](O)C(=O)N[C@H]2OCO[C@H]3[C@@H]2O[C@H](C[C@H](O)CO)C(C)(C)[C@@H]3O)O[C@H](C)[C@@H]1C", "note": "[Mycalamide D]", "values": [
      {"measurement": "IC50 against the P-388 murine leukemia cell line", "setting": "[5]", "result": 35, "unit": "ng/mL"}
    ]},
    {"smiles": "C=C1C[C@](OC)([C@H](O)C(=O)N[C@H]2OCO[C@H]3[C@@H]2O[C@H](C[C@H](O)CCC/C=C/C=C/C=C/C(=O)N[C@@H](CCCNC(=N)N)C(=O)O)C(C)(C)[C@@H]3OC)O[C@H](C)[C@@H]1C", "note": "[Onnamide A]", "values": [
      {"measurement": "IC50 against the murine P388 cell line", "setting": "[5]; U.S. Pat. No. 4,801,606", "result": 1, "unit": "ng/mL"}
    ]},
    {"smiles": "C=C1C[C@](OC)([C@H](O)C(=O)NC[C@@H]2C[C@H](O)C(C)(C)[C@@H](C[C@H](O)CCC/C=C/C=C/C=C/C(=O)N[C@@H](CCCNC(=N)N)C(=O)O)O2)O[C@H](C)[C@@H]1C", "note": "[Onnamide E]", "values": [
      {"measurement": "cytotoxic activity against the P388 cell line", "setting": "[5]; at a concentration of 0.4 μg/mL", "result": "did not show cytotoxic activity"}
    ]},
    {"smiles": "C=C1C[C@](O)([C@H](O)C(=O)N[C@@H](OC)[C@@H]2C[C@@H](O)C(C)(C)[C@@H](C[C@@H](COC)OC)O2)O[C@H](C)[C@@H]1C", "note": "[Pseudopederin, pseudopederin]", "values": [
      {"measurement": "active dose relative to pederin", "setting": "[6]", "result": 10, "unit": "times higher"}
    ]},
    {"smiles": "C=C1C[C@](OC)([C@H](O)C(=O)N[C@@H](O)[C@@H]2C[C@@H](O)C(C)(C)[C@@H](C[C@H](O)CO)O2)O[C@H](C)[C@@H]1C", "note": "[diaphorin]", "values": [
      {"measurement": "IC50", "setting": "[7]", "result": "~1000", "unit": "nM"},
      {"measurement": "IC50", "setting": "[8]", "result": "~2000", "unit": "nM"}
    ]},
    {"smiles": "C=C1C[C@](OC)([C@H](O)C(=O)N[C@@H](OC)[C@@H]2C[C@@H](O)C(C)(C)[C@@H](CC(COC)OC)O2)O[C@H](C)[C@@H]1C", "note": "(stereo partly shown) [pederin]", "values": [
      {"measurement": "concentration sufficient to cause cellular death", "setting": "[9]", "result": "~3", "unit": "nM"}
    ]}
  ]
}
